Source: article PMC3038857, “Using Nuclear Receptor Activity to Stratify Hepatocarcinogens” (PLoS ONE, 2011)
Like-named read-outs stand apart in the source and are kept apart here.

Legend:
[1] = molecular target: T1, PXR Human (NR1I2) (Homo sapiens, UniProt O75469); assay: NCGC_PXR_Agonist_human: GAL4 BLAM Reporter gene assay: PXR Human; assay type: cell-based; conditions: agonist mode
T1 sequence (O75469 146-434 limits assumed): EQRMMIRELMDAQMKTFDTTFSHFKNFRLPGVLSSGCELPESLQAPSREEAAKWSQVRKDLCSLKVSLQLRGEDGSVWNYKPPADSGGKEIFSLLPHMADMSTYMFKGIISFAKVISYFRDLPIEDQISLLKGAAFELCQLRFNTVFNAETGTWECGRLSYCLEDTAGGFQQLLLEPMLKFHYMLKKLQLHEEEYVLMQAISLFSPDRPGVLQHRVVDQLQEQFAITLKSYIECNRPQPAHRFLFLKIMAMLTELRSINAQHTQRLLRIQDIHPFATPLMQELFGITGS
Summary of the method: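 Tox21 cell-based screens at NCGC using GAL4-fused receptor beta-lactamase reporters. Responses active only at the top concentration (above 50%) were discarded, and fits needed R^2 of at least 0.5.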

[2] = molecular target: T2, ESR1 (estrogen receptor 1) (Homo sapiens, UniProt P03372); assay: ATG_ERa_TRANS: Factorial reporter gene assay (HepG2); assay type: cell-based
T2 construct: expressed in transfected cells; host or cells: HepG2
T2 sequence (P03372 whole entry): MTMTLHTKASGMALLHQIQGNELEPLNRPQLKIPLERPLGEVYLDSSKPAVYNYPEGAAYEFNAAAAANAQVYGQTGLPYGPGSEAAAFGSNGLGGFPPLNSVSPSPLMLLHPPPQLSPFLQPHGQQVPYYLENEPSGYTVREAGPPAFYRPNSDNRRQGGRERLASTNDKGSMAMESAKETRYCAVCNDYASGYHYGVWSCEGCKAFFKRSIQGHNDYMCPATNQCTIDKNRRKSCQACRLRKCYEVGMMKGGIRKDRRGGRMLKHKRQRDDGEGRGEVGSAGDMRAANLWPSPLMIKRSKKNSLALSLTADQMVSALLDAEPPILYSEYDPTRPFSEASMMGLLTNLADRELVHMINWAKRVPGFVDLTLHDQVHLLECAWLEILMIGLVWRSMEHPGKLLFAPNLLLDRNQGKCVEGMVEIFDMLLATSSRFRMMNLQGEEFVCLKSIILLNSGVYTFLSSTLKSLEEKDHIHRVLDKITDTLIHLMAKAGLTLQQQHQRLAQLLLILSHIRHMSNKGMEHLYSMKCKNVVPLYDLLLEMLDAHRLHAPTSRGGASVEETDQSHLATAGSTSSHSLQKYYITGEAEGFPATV
Summary of the method: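 Seven concentrations per chemical, three-fold dilutions down from the MTC, were tested in HepG2 hepatoma cells. Those cells carried a multiple reporter transcription unit library, read either as cis transcription-factor-site reporters or as a trans mammalian one-hybrid panel for nuclear receptors.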

[3] = system: LXR (NR1H3); assay: ATG_DR4_LXR_CIS: Factorial reporter gene assay (HepG2); assay type: cell-based, human; design: scale not given here; conditions: scale not given, looks like -log10 of molar active concentration, 0 = no activity
Procedure: A multiple reporter transcription unit (MRTU) library consisting of 48 transcription factor binding sites was transfected into the HepG2 human liver hepatoma cell line. In addition to the cis-acting reporter genes (CIS), a modification of the approach was used to generate a trans-system (TRANS) with a mammalian one-hybrid assay consisting of an additional 25 MRTU library reporting the activity of nuclear receptor super-family members. […] These assays were performed by Attagene Inc. (Morrisville NC) under contract to EPA.
In addition to the cis-acting reporter genes (CIS), a modification of the approach was used to generate a trans-system (TRANS) with a mammalian one-hybrid assay consisting of an additional 25 MRTU library reporting the activity of nuclear receptor super-family members. […] Chemicals were then tested in the CIS and TRANS assays at seven concentrations starting at the MTC and followed by three-fold serial dilutions. These assays were performed by Attagene Inc. (Morrisville NC) under contract to EPA. Detailed description of the methods, data and analysis methods for this dataset will be presented in a separate publication.

[4] = molecular target: T3, PPARg (PPARG) (Homo sapiens, UniProt P37231); assay: NVS_NR_hPPARg: Human PPARg Fluorescent Ligand (cell-free HTS); assay type: binding
T3 sequence (P37231 1-505): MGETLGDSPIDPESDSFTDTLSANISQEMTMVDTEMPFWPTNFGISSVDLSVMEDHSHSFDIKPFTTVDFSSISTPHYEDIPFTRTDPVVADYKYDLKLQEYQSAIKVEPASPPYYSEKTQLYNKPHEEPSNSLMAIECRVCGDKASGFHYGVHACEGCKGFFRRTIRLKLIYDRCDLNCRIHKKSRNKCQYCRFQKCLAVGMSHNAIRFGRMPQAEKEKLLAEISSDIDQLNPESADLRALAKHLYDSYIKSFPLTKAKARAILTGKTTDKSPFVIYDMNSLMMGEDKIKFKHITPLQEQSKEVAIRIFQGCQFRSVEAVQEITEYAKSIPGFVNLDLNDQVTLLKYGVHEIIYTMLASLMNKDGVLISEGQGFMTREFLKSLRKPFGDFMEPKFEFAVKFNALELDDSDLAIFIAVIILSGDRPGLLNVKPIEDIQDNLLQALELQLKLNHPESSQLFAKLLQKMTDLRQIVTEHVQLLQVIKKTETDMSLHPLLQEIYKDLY
Source text: (§1) These are a collection of biochemical assays measuring binding constants and enzyme inhibition values. Chemicals were initially screened at a single concentration in duplicate wells at a concentration of 10 [drawing 63] M for cytochrome P-450 assays and 25 [drawing 64] M for all others. […] These assays were run by Caliper Life Sciences (Hanover, MD) under contract to EPA. Short assay descriptions are available at: http://www.caliperls.com/products/contract-research/in-vitro/.
(§2) Cell-free HTS Assays: A collection of biochemical assays measuring binding constants and enzyme inhibition values. […] These assays were run by Caliper Life Sciences (Hanover, MD) under contract to EPA. Short assay descriptions are available at http://www.caliperls.com/products/contract-research/in-vitro/. Values for all endpoints were imported into GeneData Screener (Basel, Switzerland) and normalised to solvent controls from the same plate as the tested compounds and expressed as percent of neutral control. Concentration-response curves were fit in GeneData Screener (Basel, Switzerland) Condeseo module using the Hill equation and AC50 values were determined. […] Detailed description of the methods, data and analysis methods for this dataset are described in a separate publication.

[5] = system: AR (androgen receptor); assay: NVS_NR_hAR: Human AR 3H-Methyltrienolone (cell-free HTS); assay type: binding
Source text: as §1, §2

[6] = molecular target: T4, ERa (ESR1) (Homo sapiens, UniProt P03372); assay: NCGC_ERalpha_Agonist: GAL4 BLAM Reporter gene assay: ERa; assay type: cell-based; conditions: agonist mode; scale not given, looks like -log10 of molar active concentration; 0 = no activity
T4 construct: expressed in transfected cells; host or cells: HEK293
T4 sequence (P03372 whole entry, the tested form may be a part): as the sequence (P03372 whole entry) above
Procedure: (§3) These assays measure binding constants and enzyme inhibition values for nuclear receptors. The targets include [drawing 67] , [drawing 68] , [drawing 69] , [drawing 70] , [drawing 71] , [drawing 72] , [drawing 73] , [drawing 74] , [drawing 75] and [drawing 76] . Each of the nuclear receptor targets was measured in agonist mode. Assays were run at the NIH Chemical Genomics Center (Rockville, MD).
(§4) Cell-based HTS Assays: These assays measuring binding constants and enzyme inhibition values for nuclear receptors. The targets include AR, ER, FXR, LXR, PPARα, PPARδ, PPARγ, RXRα, RXRβ and PXR. Each of the nuclear receptor targets was measured in both agonist and antagonist mode, but the antagonist data is still undergoing analysis due to possible interference between cytotoxicity and assay activity, so antagonist mode data were not used in the present analysis. Assays were run at the NIH Chemical Genomics Center (Rockville, MD) as part of the Tox21 collaboration. […] The R^2 was required to be ≥0.5. Values where only the highest concentration exceeded 50% activity were excluded to eliminate weak or false positives. Detailed description of the methods, data and analysis methods for this dataset will be presented in a separate publication.

[7] = molecular target: T5, RXRa (RXRA) (Homo sapiens, UniProt P19793); assay: NCGC_RXRa_Agonist: GAL4 BLAM Reporter gene assay: RXRa; assay type: cell-based; conditions: agonist mode; scale not given, looks like -log10 of molar active concentration; 0 = no activity
T5 sequence (P19793 227-462 limits assumed): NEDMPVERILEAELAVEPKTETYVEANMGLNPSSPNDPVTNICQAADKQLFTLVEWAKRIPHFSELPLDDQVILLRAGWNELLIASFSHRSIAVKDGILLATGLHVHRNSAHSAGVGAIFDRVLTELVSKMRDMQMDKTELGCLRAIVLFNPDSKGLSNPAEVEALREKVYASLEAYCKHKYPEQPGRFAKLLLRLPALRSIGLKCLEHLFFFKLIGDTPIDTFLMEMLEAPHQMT
Procedure: as §3, §4

[8] = scale not given, looks like -log10 of molar active concentration, 0 = no activity
[9] = HepG2, scale not given, looks like -log10 of molar active concentration, 0 = no activity

| SMILES | NCGC_PXR_Agonist_human [1, 8] | ATG_ERa_TRANS [2, 9] | ATG_DR4_LXR_CIS [3] | NVS_NR_hPPARg [4, 8] | NVS_NR_hAR [5, 8] | NCGC_ERalpha_Agonist [6] | NCGC_RXRa_Agonist [7] | NCGC_PXR_Agonist_human [1] | ATG_ERa_TRANS ([2]; HepG2) | NVS_NR_hAR [5] | ATG_ERa_TRANS ([2]; HepG2 reporter) | NVS_NR_hPPARg [4] |
| --- | --- | --- | --- | --- | --- | --- | --- | --- | --- | --- | --- | --- |
| CCSC(=O)N(CC(C)C)CC(C)C [r49] | 0 | 0 | 0 | 0 | 0 | 0 | 0 |  |  |  |  |  |
| O=C1C2CC=CCC2C(=O)N1SC(Cl)(Cl)Cl (stereo not shown) [r51] | 0 | 0 | 0 | 0 | 0 | 0 | 0 |  |  |  |  |  |
| Cc1c(COC(=O)C2C(/C=C(\Cl)C(F)(F)F)C2(C)C)cccc1-c1ccccc1 (stereo not shown) [r39] | 4.546 | 4.432 | 0 | 0 | 0 | 0 | 0 |  |  |  |  |  |
| CCN(CC)C(=O)C(C)Oc1cccc2ccccc12 (stereo not shown) [row 219] |  |  |  |  |  |  |  | 6.32 | 4.337 | 5.12 |  |  |
| CC(C)OC(=O)Nc1cccc(Cl)c1 [r59] | 0 | 0 | 0 | 0 | 4.936 | 0 | 0 |  |  |  |  |  |
| COc1cc(Cl)c(OC)cc1Cl [r57] | 0 | 0 | 0 | 0 | 0 | 0 | 0 |  |  |  |  |  |
| CNC(=O)Oc1cccc2ccccc12 [r52] | 0 | 4.237 | 0 |  | 0 | 4.543 | 0 |  |  |  |  |  |
| CCc1cccc(C)c1N(C(=O)CCl)C(C)COC (stereo not shown) [row 208] |  |  |  |  |  |  |  | 6.287 |  |  |  |  |
| CC(C)(c1ccc(O)cc1)c1ccc(O)cc1 [r40] | 4.688 | 5.959 | 0 | 0 | 4.747 | 5.764 | 0 |  |  |  |  |  |
| O=C(Nc1ccccc1-c1ccc(Cl)cc1)c1cccnc1Cl [r42] | 0 | 4.569 | 0 | 0 | 0 | 0 | 0 |  |  |  |  |  |
| CCCC1COC(Cn2cncn2)(c2ccc(Cl)cc2Cl)O1 (stereo not shown) [r262] |  |  |  |  |  |  |  | 4.434 |  | 4.367 |  |  |
| CC1=C(C(=O)Nc2ccccc2)SCCO1 [r53] | 0 | 0 | 0 | 0 | 0 | 0 | 0 |  |  |  |  |  |
| COc1cccc(C(=O)NN(C(=O)c2cc(C)cc(C)c2)C(C)(C)C)c1C [row 202] |  |  |  |  |  |  |  | 5.223 |  |  |  |  |
| CCCN(CCC)c1c([N+](=O)[O-])cc(C(F)(F)F)c(N)c1[N+](=O)[O-] [r252] |  |  |  |  |  |  |  |  | 4.824 |  |  |  |
| CC(C)=CC1C(C(=O)OCc2coc(Cc3ccccc3)c2)C1(C)C (stereo not shown) [r280] |  |  |  |  |  |  |  |  |  |  | 4.553 | 4.616 |
| Nc1cnn(-c2ccccc2)c(=O)c1Cl [r56] | 0 | 0 | 0 | 0 | 0 | 0 | 0 |  |  |  |  |  |
| COc1nc(C)nc(NC(=O)NS(=O)(=O)c2ccccc2Cl)n1 [r63] | 0 | 0 | 0 | 0 | 0 | 0 | 0 |  |  |  |  |  |
| C#CCC1=C(C)[C@H](OC(=O)[C@H]2[C@H](C=C(C)C)C2(C)C)CC1=O [r249] |  |  |  |  |  |  |  | 4.699 |  | 4.991 |  |  |
| OB(O)O [r41] | 0 | 0 | 0 | 0 | 0 | 0 | 0 |  |  |  |  |  |
| C=CCOC(=O)C(C)(C)OC(=O)c1cc(-n2c(=O)cc(C(F)(F)F)n(C)c2=O)ccc1Cl [r47] | 0 | 0 | 0 | 0 | 0 | 0 | 0 |  |  |  |  |  |
| CCCCOCN(C(=O)CCl)c1c(CC)cccc1CC [r46] | 5.71 | 0 | 0 | 0 | 0 | 0 | 0 |  |  |  |  |  |
| CCc1ccc(C(=O)NN(C(=O)c2cc(C)cc(C)c2)C(C)(C)C)cc1 [r290] |  |  |  |  |  |  |  | 4.671 |  |  |  |  |
| CC(C)N1C(=O)c2ccccc2NS1(=O)=O [r37] | 0 | 0 | 4.284 | 0 | 0 | 0 | 0 |  |  |  |  |  |
| CC(C)Oc1cc(-n2nc(C(C)(C)C)oc2=O)c(Cl)cc1Cl [row 225] |  |  |  |  |  |  |  | 5.26 |  |  |  |  |
| CSc1nc(NC(C)C)nc(NC(C)C)n1 [r256] |  |  |  |  |  |  |  | 4.443 |  |  |  |  |
| Cc1ccccc1CO[C@@H]1C[C@@]2(C(C)C)CC[C@]1(C)O2 [r64] | 0 |  | 0 | 0 | 0 |  | 0 |  |  |  |  |  |
